Assay results reported in patent US6743810B2, “Indol-3-yl derivatives” (Merck Patent GmbH, priority 2000, dated 2004).
Structures can show the parent of a compound that is named as a salt.

Row | melting point | Structure (SMILES)
1 | 137 °C | O=C(O)C[C@@H](c1ccccc1)c1c[nH]c2cc(OCCCNc3ccccn3)ccc12 (as salt: salt) [compound 46, (3S)-3-Phenyl-3-{6-[3-(pyridin-2-ylamino)propoxy]indol-3-yl}propionic acid]
2 | 232 °C (dec.) | O=C(O)CC(c1ccccc1)c1c[nH]c2cc(OCCCNc3ccccn3)ccc12 (centres unmarked) (as salt: trifluoroacetate) [compound 8, 3-Phenyl-3-{6-[3-(pyridin-2-ylamino)propoxy]indol-3-yl}propionic acid]
